From a melting point compilation (Tetko et al.; mined from patent text by program, amines drawn as free bases though some values may be those of a salt)

Row | SMILES | melting point [°C]
1 | OCCc1ccc(Nc2ncc3c(n2)-c2ccccc2C(c2ccc(Cl)cc2)C3)cc1 (configuration not stated) | 163 to 164
2 | CCCCSc1c[nH]nc1C1=CCCN(C)C1 | 120 to 121
3 | FC(F)(F)c1cccc2c(-c3ccccc3)c(Sc3ccccc3)cnc12 | 153 to 155
4 | COc1cc2c(Oc3ccc4[nH]c(C)cc4c3)ncnc2cc1OCC1CCN(C)C(=O)C1 (configuration not stated) | 250 to 251
5 | COc1cc(C(=O)N2CCC(CCN3CCC(Nc4nc5ccccc5n4Cc4nccn4Cc4ccccc4)CC3)(c3ccc(F)cc3)C2)cc(OC)c1OC (configuration not stated) | 95 to 100
6 | CC(CC(=O)Nc1cc(Cc2n[nH]c(=O)c3ccccc23)ccc1F)C(=O)O (configuration not stated) | 140 to 144
7 | CCCCN1C(=O)c2cccc3c(SC)ccc1c23 | 75 to 77
8 | CC(C)(C)OC(=O)NC1CCCCCC=CC2CC2(C(=O)NS(=O)(=O)C2CC2)NC(=O)C2CC(OC(=O)c3ccc(-c4ccccc4)cc3)CN2C1=O (configuration not stated) | 162 to 164
9 | COc1ccc(CN2CCC(c3cn(Cc4ccc(Cl)s4)c4cccnc34)CC2)cc1C(=O)O | 201 to 202
10 | CCOC(=O)COc1c(C)cc(C(O)(C(F)(F)F)C(F)(F)F)cc1C | 99 to 101
11 | CC(=O)Oc1ccc(CN2C(=O)C(=O)c3ccccc32)cc1 | 159 to 161
12 | CNc1ccc(Cl)c(-c2cc(=O)c3c(O)cc(O)c(C4CCN(C)C4CO)c3o2)c1 (configuration not stated) | 208 to 210
13 | C[C@@H]1COC(=O)N1c1nc(-c2cccc(C#N)c2)cs1 | 187 to 189
14 | CCN1CCC(OC)(c2cccc(F)c2F)C1 (single isomer, unassigned; (+)) | 104 to 106
15 | O=C1Nc2ccc([N+](=O)[O-])cc2C12OCCCO2 | 155 to 168
16 | CC(C)n1nc(-c2ccc(O)cc2)c2sccc2c1=O | 256 to 257
17 | CC(C)(C)CC(C)(C)c1cc(N=Nc2ccc(-c3ccccc3)cc2[N+](=O)[O-])c(O)c(C(C)(C)c2ccccc2)c1 | 176 to 179
18 | COc1nc(C(F)(F)F)cc(=O)n1-c1cc(C(=O)N(C)OC)c(Cl)cc1F | 119
19 | COc1ccc2nc(COc3ccc(CC(SC)C(N)=O)cc3)n(C)c2c1 (configuration not stated) | 188 to 190
20 | COc1cc(C)c(C(=O)c2c(Cl)cccc2Cl)cc1Oc1ccccc1 | 89
21 | O=C1OC(c2ccc(Cl)cc2)C(Cn2cncn2)(c2ccc(Cl)cc2Cl)O1 (configuration not stated) | 178 to 179
22 | CC(=O)NC(=Cc1ccccc1)C1=NC(=Cc2ccc(F)cc2)C(=O)O1 | 172
23 | CN1Cc2c(C#CC(C)(C)O)ncn2-c2ccc(F)cc2C1=O | 163 to 164
24 | CC(C)(C)OC(=O)COc1ccc(NC(=O)NC(=O)c2ccc(C(N)=S)nc2)cc1 | 248 to 249
25 | O=C(Nc1nc2ccc(OCc3c(Cl)cccc3Cl)cc2[nH]1)C1CC1 | 133 to 135

Row | SMILES | melting point [°C]
26 | CC(=O)n1ccc2cc(C(=O)NC(C)(C)C)ccc21 | 187
27 | NCCc1ccc(-n2cnc3cnc4ccc(Cl)cc4c32)cc1 | 140 to 141
28 | Cc1cc2ccccc2nc1Sc1ccc2c(c1)CC[C@H]1N(C)C(=O)CC[C@]21C | 185 to 193
29 | CN1CCN(c2ccc(Nc3ncc4ccc(Sc5ccccc5)n4n3)cc2)CC1 | 155 to 157
30 | COc1cccc(C2(Cl)C(=O)Nc3ccc(Cl)cc32)c1 (configuration not stated) | 170
31 | Brc1cnc(Br)c2ccccc12 | 95 to 96
32 | O=C(O)CCCCCOC(c1ccccc1)(c1ccccc1)c1ccccc1 | 114 to 116
33 | Clc1cc(Cl)c(Oc2c(Cl)ncnc2Cl)c(Cl)c1 | 104 to 105
34 | CC(C)CCOC(=O)c1cc2c([nH]c3ccccc32)c(-c2ccc3c(n2)C(=O)C(NC(=O)CCl)=CC3=O)n1 | 280 to 284
35 | FC(F)(F)c1cc(Oc2cc(Oc3ccc(Cl)c(C(F)(F)F)c3)ncn2)ccc1Cl | 111
36 | Cc1oc2c(NC(=O)c3c(Cl)cccc3Cl)cccc2c1CN | 200 to 203
37 | CC(=O)Nc1ccc(SC(CCc2ccc(Cl)cc2)Cn2ccnc2)cc1 (configuration not stated) | 166
38 | NC1=NC(c2ccc(OC(F)F)cc2)(c2cccc(-c3cccnc3F)c2)C2=NCC3(COC3)CN12 (configuration not stated) | 96 to 107
39 | N#Cc1cc(-c2ccccc2)[nH]c1Sc1ccc2ccccc2c1 | 93 to 94.4
40 | CCCCOc1c(CNC(=O)OC(C)(C)C)n(CC(C)C)c(=O)c2ccc(-c3nc(C#N)cs3)cc12 | 160 to 161
41 | CN1C(=O)CSc2c(NCc3cccc(OCc4ccc5ccccc5n4)c3)cccc21 | 102 to 104
42 | CCOC(=O)CC1N(c2c(C)cccc2C)C(=N)C(C)N1c1c(C)cccc1C (configuration not stated) | 116 to 119
43 | CCOC(=O)c1cnc2[nH]c(=O)ccc2c1Nc1ccc(OC)cc1 | 243 to 246
44 | COc1c(/C=C/c2ccc(C#N)cc2)c(C)cc2c1C(C)(C)CCC2(C)C | 120
45 | COC(=O)C1=CON2CCC34C=CC(O)CC3Oc3c(OC)ccc(c34)C12 (configuration not stated) | 151 to 154
46 | COc1cc(C)cc2c(Br)ccc(OC(C)C)c12 | 78
47 | COc1cc2ncnc(N3CCN(C(=O)NCc4ccc(Br)cc4)CC3)c2cc1OC | 211 to 212
48 | COC(=O)C1OC(OC(=N)C(Cl)(Cl)Cl)C(OC(=O)C(C)C)C(OC(=O)C(C)C)C1OC(=O)C(C)C (configuration not stated) | 108
49 | CC(C)CC(CO)(CO)CC(C)C | 75 to 77
50 | NC(=O)c1sc2nccc(N3CCN(c4ccccn4)CC3)c2c1N | 266 to 270

Row | SMILES | melting point [°C]
51 | CCCCOC1c2ccccc2C(=O)N(CC(C)C)C1(/C=C/C(N)=O)CNC(=O)OC(C)(C)C (configuration not stated) | 149 to 150
52 | COC(=O)c1cc(CN=C=S)cc(CN=C=S)c1 | 67 to 69
53 | CCCn1c(=O)c2[nH]c(/C=C/c3ccc(OC)c(OC)c3OC)nc2n(CCC)c1=O | 246 to 247
54 | Cc1oc(-c2ccccc2)nc1COc1ccc(OCc2oc(-c3ccccc3)nc2/C=C/C(=O)O)cc1 | 209 to 210
55 | O=C1NC(=Cc2c(Cl)cccc2Cl)C(=O)C1=NO | 232
56 | CCOC(=O)c1cn(Cc2ccccc2)nc1OCc1ccc(OCc2nc(-c3ccco3)oc2C)cc1OC | 137 to 138
57 | CCN(CC)CCOc1ccc(Nc2ncc3c(n2)N(C)C(=O)N(c2cc(Cl)ccc2Cl)C3)cc1 | 138
58 | COc1ccc(CCNC(=O)CCc2ccccc2C(=O)NCCc2ccccc2)cc1OC | 122 to 123
59 | CN1CCN(Cc2ccc(NC(=O)c3cccc4cc(Oc5ccnc(NC(=O)C6CC6)c5)ccc34)cc2C(F)(F)F)CC1 | 218 to 220
60 | COc1cc([N+](=O)[O-])c2ncccc2c1Cl | 204 to 206
61 | CN1C(=O)Cc2c(sc3ccccc23)S1(=O)=O | 175 to 178
62 | CS(=O)(=O)c1ccccc1SCc1ccccc1 | 132 to 133
63 | c1ccc2c(c1)CCCC2c1c[nH]cn1 (configuration not stated) | 105 to 110
64 | CNS(=O)(=O)c1cccnc1S(=O)(=O)NC(=O)Nc1nc(OC)cc(OC)n1 | 147 to 148
65 | O=C(Nc1ccc(F)cc1)c1ccccn1 | 100 to 103
66 | ClC1=Nc2ccccc2Oc2ccccc21 | 53 to 55
67 | Cc1nc2ccc(F)cc2c2c1ncn2C | 184 to 186
68 | O=c1[nH]c(CCN2CCN(c3nsc4ccccc34)CC2)cs1 | 190
69 | CSc1ncc(S(=O)(=O)NC(C)(C)C)c(Nc2cccc(C)c2)n1 | 178
70 | COC(=O)CCCc1cc2cc(Cl)ccc2n1S(=O)(=O)c1cccc(OC)c1 | 107 to 109
71 | CN(Cc1cccc2c1CN(C1CCC(=O)NC1=O)C2=O)C(=O)Nc1cc(F)cc(F)c1 (configuration not stated) | 228 to 230
72 | CCOC(=O)c1cnc2ccc(-c3ccc(C(F)(F)F)cc3)cn12 | 118
73 | N=C(N)Nc1nc(CSCCNC(N)=N[N+](=O)[O-])ns1 | 184 to 186
74 | O=C(O)c1cc(S(=O)(=O)O)c2cccnc2c1O | 289 to 291
75 | CNC(=O)Cc1ccc2ccn(C3CCN(CCc4ccc(F)cc4)CC3)c2c1 | 149 to 150

Row | SMILES | melting point [°C]
76 | O=C(O)C1CCc2ccccc2N1C(=O)CSSCC(=O)N1c2ccccc2CCC1C(=O)O (configuration not stated) | 172 to 174
77 | Nc1sc2c(c1C(=O)c1ccc(Cl)cc1)CCN(C(=O)OCc1ccccc1)C2 | 60 to 62
78 | Oc1c(Cl)cc(Cl)cc1Cc1cc(F)cc(Cc2cc(Cl)cc(Cl)c2O)c1O | 168
79 | CNc1cc(NC)nc(NC)n1 | 215
80 | CC(C)(C)c1cc(CCc2cc(C(C)(C)C)c(O)c(C(C)(C)C)c2)cc(C(C)(C)C)c1O | 170 to 171
81 | CN(C(=O)[C@H]1CC[C@@H](c2ccccc2)N1C(=O)OC(C)(C)C)c1ccccc1 (racemic) | 132
82 | Cc1cccc(C2=NCSC2(c2ccnc(C)c2)N2CCOC2=O)c1 (configuration not stated) | 80 to 82
83 | CCOC(=O)NC(=NCCCCc1ccccn1)NCCCc1c[nH]cn1 | 92 to 94
84 | NNc1ccc(S(N)(=O)=O)cc1 | 169 to 171
85 | Cn1ncnc1COc1nc2c(cc1-c1cccc(F)c1)nnn2-c1c(F)cccc1F | 137 to 140
86 | COc1ccc(Cn2ncc3nc(O)nc(O)c32)cc1 | 288 to 292
87 | CN(C)Cc1cc(Nc2nncc3ccccc23)cc(CN(C)C)c1O | 195
88 | CC(C)(C)c1cc(C(=NNc2ccccc2)c2ccccc2)cc(C(C)(C)C)c1O | 144 to 145
89 | COc1ccc(CCNC(=O)Nc2ccccc2CCc2cc(C(C)(C)C)c(O)c(C(C)(C)C)c2)cc1 | 148 to 149
90 | COc1cc(-c2nc(Nc3ccc(C)cc3)c3ccccc3n2)cc(OC)c1OC | > 250
91 | COc1cc([N+](=O)[O-])c(NC(C)=O)cc1OC(F)F | 116 to 117
92 | CCCOc1ccc([N+](=O)[O-])cc1[N+](=O)[O-] | 84 to 86
93 | O=C(O)C1CSC(c2ccncc2)N1 (configuration not stated) | 171 to 173
94 | CCOC(=O)c1cnc2sccc2c1Sc1nnc(C)s1 | 93 to 94
95 | N#CC1(C#N)C2CC(C(Cl)C2Cl)C1(Cl)Cl (configuration not stated) | 126
96 | CC(C)(C)C(O)c1ccc(C(=O)O)cc1 (configuration not stated) | 162 to 163
97 | O=C(OCc1ccccc1)c1ccc(Br)c(OCc2ccccc2)c1 | 80.5 to 81.5
